Data on 25 compounds can be found in US11667649B2, “Heteroaromatic macrocyclic ether chemotherapeutic agents” (Nuvalent, Inc., priority 2020, dated 2023).

For assay [1], the target named is T1, ROS1-G2032R kinase domain (Homo sapiens, UniProt P08922, G2032R).
T1 construct: TRKA-wt (1 nM, BPS Bio, 40280) kinase domains in buffer; purchased SignalChem R14-12BG
Put plainly: Biochemical kinase assay, ROS1-G2032R. The conditions noted are these: 2 mM ATP substrate solution, read-out: Ki^app ROS1-G2032R. The procedure:
(§1) First, 250 nL of compound dissolved in DMSO (100-fold of the desired concentration) was dispensed into a 384-well plate. A 12.5 μL substrate solution containing ATP (2 mM) and fluorogenic phosphorylation substrate AQT0101 (26 μM for ALK and ROS1, AssayQuant) or AQT0104 (26 μM for TRKA, AssayQuant) in buffer (50 mM HEPES pH 7.5, 0.01% Brij-35, 0.5 mM EGTA, 10 mM MgCl2) was added and mixed thoroughly. Then, a 12.5 μL kinase solution containing ALK-wt (1.5 nM, Carna, 08-518), ALK ALK L1196M/G1202R (3 nM, SignalChem, A19-12NG), ROS1-wt (0.6 nM, Carna, 08-163), ROS1-G2032R (0.5 nM, SignalChem, R14-12BG), or TRKA-wt (1 nM, BPS Bio, 40280) kinase domains in buffer ([…] HEPES pH 7.5, 0.01% Brij-35, 2% glycerol, 0.4 mg/mL BSA, 0.5 mM EGTA, and 10 mM MgCl2) was added and mixed thoroughly. The plate was sealed and read by SpectraMax Paradigm at λ=485 nm every 2 minutes for 120 minutes at 30° C. Initial rates of reaction (v) were calculated from the change in fluorescence intensity over time during the initial, linear portion of the reaction. Finally, apparent inhibitory constants (Ki^app) were determined from regression of v and I (inhibitor concentration) to Morrison Equation (E=enzyme concentration): […]

For assay [2], the target named is T2, ROS1-wt kinase domain (Homo sapiens, UniProt P08922).
T2 construct: TRKA-wt (1 nM, BPS Bio, 40280) kinase domains in buffer; purchased Carna 08-163
The assay is described as follows: Biochemical kinase assay, ROS1-wt. The conditions noted are these: 2 mM ATP substrate solution, read-out: Ki^app ROS1-wt. The procedure:
as §1

Assay [3] addresses T3, ALK-wt kinase domain (Homo sapiens, UniProt Q9UM73).
T3 construct: TRKA-wt (1 nM, BPS Bio, 40280) kinase domains in buffer; purchased Carna 08-518
Put plainly: Biochemical kinase assay, ALK-wt. The conditions noted are these: 2 mM ATP substrate solution, read-out: Ki^app ALK-wt. In a few lines: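 Apparent Ki values come from fitting initial reaction rates against inhibitor concentration to the Morrison equation. Rates were taken from the linear phase of fluorogenic substrate phosphorylation (AQT0101 for ALK and ROS1, AQT0104 for TRKA; 26 μM in substrate solution with 2 mM ATP), monitored at 485 nm over 120 min at 30° C.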

Assay [4] addresses T4, ALK L1196M/G1202R kinase domain (Homo sapiens, UniProt Q9UM73, G1202R/L1196M).
T4 construct: TRKA-wt (1 nM, BPS Bio, 40280) kinase domains in buffer; purchased SignalChem A19-12NG
The assay is described as follows: Biochemical kinase assay, ALK L1196M/G1202R. The conditions noted are these: 2 mM ATP substrate solution, read-out: Ki^app ALK-L1196M-G1202R. The procedure, abridged: (§2)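 Kinase domains (in kinase solution: ROS1-G2032R 0.5 nM, ROS1-wt 0.6 nM, TRKA 1 nM, ALK L1196M/G1202R 3 nM) were mixed with compound and a substrate solution of 2 mM ATP plus 26 μM fluorogenic AQT0101 (ALK, ROS1) or AQT0104 (TRKA) in HEPES pH 7.5/MgCl2. Fluorescence was followed for 120 min at 30° C; Ki^app was obtained by Morrison fit of initial rates.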

The target of assay [5] is T5, TRKA-wt kinase domain (Homo sapiens, UniProt P04629).
T5 construct: TRKA-wt (1 nM, BPS Bio, 40280) kinase domains in buffer; purchased BPS Bio 40280
Put plainly: Biochemical kinase assay, TRKA-wt. The conditions noted are these: 2 mM ATP substrate solution, read-out: Ki^app TRKA-wt. The procedure, abridged:
as §2

With `Cc1nc2c(s1)Cn1ncc(C(F)F)c1-c1cnc(N)c(c1)O[C@H](C)c1cc(F)ccc1-2` [Compound 68], the Ki in assay [1] is less than 0.05 µM; in assay [2], less than 0.05 µM; in assay [3], less than 0.05 µM; in assay [4], less than 0.05 µM; in assay [5], 0.05 to 0.5 µM.

As to `CCn1ncc2c1-c1cnc(N)c(c1)OCc1cc(F)ccc1-n1nc(C)cc1C2` [Compound 69], the Ki in assay [1] was less than 0.05 µM; in assay [2], less than 0.05 µM; in assay [3], less than 0.05 µM; in assay [4], less than 0.05 µM; in assay [5] it was 0.05 to 0.5 µM.

Turning to `CCn1nnc2c1-c1cnc(N)c(c1)O[C@H](C)c1cc(F)ccc1-c1ncc(F)cc1C2` [Compound 70], the Ki in assay [1] was less than 0.05 µM; in assay [2], less than 0.05 µM; in assay [3], less than 0.05 µM; in assay [4], less than 0.05 µM; in assay [5] it was 0.05 to 0.5 µM.

As for `CCn1ncc2c1-c1cnc(N)c(c1)O[C@H](C)c1cc(F)ccc1-n1nc(F)cc1C2` [Compound 71], the Ki in assay [1], in assay [2], in assay [3], in assay [4] and in assay [5] was less than 0.05 µM each time.

Take `Cc1nc2c(s1)Cc1cnn(C(F)F)c1-c1cnc(N)c(c1)O[C@H](C)c1cc(F)ccc1-2` [Compound 72]: the Ki in assay [1] was less than 0.05 µM; in assay [2], less than 0.05 µM; in assay [3] it was less than 0.05 µM; in assay [4] it was less than 0.05 µM; in assay [5] it was 0.05 to 0.5 µM.

For `CCn1nc(Cl)c2c1-c1cnc(N)c(c1)O[C@H](C)c1cc(F)ccc1-c1nn(C)cc1C2` [Compound 73], the Ki is less than 0.05 µM in assay [1]; less than 0.05 µM in assay [2]; less than 0.05 µM in assay [3]; less than 0.05 µM in assay [4]; 0.05 to 0.5 µM in assay [5].

As for `CCn1ncc2c1-c1cnc(N)c(c1)O[C@H](C)c1cc(F)ccc1-n1nc(Cl)cc1C2` [Compound 74], the Ki in assay [1], in assay [2], in assay [3], in assay [4] and in assay [5] was less than 0.05 µM throughout.

Regarding `CCn1ncc2c1-c1cnc(N)c(c1)OCc1cc(F)ccc1-n1nc(Cl)cc1C2` [Compound 75], the Ki was less than 0.05 µM in assay [1]; less than 0.05 µM in assay [2]; less than 0.05 µM in assay [3]; less than 0.05 µM in assay [4]; 0.05 to 0.5 µM in assay [5].

Regarding `CCn1nc(Cl)c2c1-c1cnc(N)c(c1)O[C@H](C)c1cc(F)ccc1-n1nc(C)cc1C2` [Compound 76], the Ki in assay [1], in assay [2], in assay [3], in assay [4] and in assay [5] was less than 0.05 µM throughout.

As for `CCn1ncc2c1-c1cnc(N)c(c1)O[C@H](C)c1cc(F)ccc1-c1ncoc1C2` [Compound 77], the Ki was less than 0.05 µM in assay [1]; less than 0.05 µM in assay [2]; less than 0.05 µM in assay [3]; less than 0.05 µM in assay [4]; 0.05 to 0.5 µM in assay [5].

For `CCn1nnc2c1-c1cnc(N)c(c1)O[C@H](C)c1cc(F)ccc1-c1nc(C)sc1C2` [Compound 78], the Ki was less than 0.05 µM in assay [1]; less than 0.05 µM in assay [2]; less than 0.05 µM in assay [3]; less than 0.05 µM in assay [4]; 0.05 to 0.5 µM in assay [5].

With `Cc1nn(CC(F)F)c2c1Cc1cn(C)nc1-c1ccc(F)cc1[C@@H](C)Oc1cc-2cnc1N` [Compound 79], the Ki in assay [1] was less than 0.05 µM; in assay [2] it was less than 0.05 µM; in assay [3], less than 0.05 µM; in assay [4] it was less than 0.05 µM; in assay [5] it was more than 0.5 µM.

With `CCn1ncc2c1-c1cnc(N)c(c1)O[C@H](C)c1cc(F)ccc1-n1nc(Br)cc1C2` [Compound 80], the Ki in assay [1], in assay [2], in assay [3], in assay [4] and in assay [5] was less than 0.05 µM in each case.

Consider `CCn1nc(C)c2c1-c1cnc(N)c(c1)O[C@H](C)c1cc(F)ccc1-c1nn(C)cc1C2` [Compound 81], for which the Ki was less than 0.05 µM in assay [1]; less than 0.05 µM in assay [2]; less than 0.05 µM in assay [3]; less than 0.05 µM in assay [4]; 0.05 to 0.5 µM in assay [5].

With `Cc1nc2c(s1)Cc1c(c(C#N)nn1C)-c1cnc(N)c(c1)O[C@H](C)c1cc(F)ccc1-2` [Compound 82], the Ki was less than 0.05 µM in assay [1]; less than 0.05 µM in assay [2]; less than 0.05 µM in assay [3]; less than 0.05 µM in assay [4]; 0.05 to 0.5 µM in assay [5].

In the case of `C[C@H]1Oc2cc(cnc2N)-c2c(c(Cl)nn2CC(F)F)Cc2cn(C)nc2-c2ccc(F)cc21` [Compound 83], the Ki in assay [1] was less than 0.05 µM; in assay [2], less than 0.05 µM; in assay [3] it was less than 0.05 µM; in assay [4], less than 0.05 µM; in assay [5], more than 0.5 µM.

For the compound `C[C@H]1Oc2cc(cnc2N)-c2c(cnn2CC(F)F)Cc2cc(C(F)(F)F)nn2-c2ccc(F)cc21` [Compound 84], the Ki was less than 0.05 µM in assay [1]; less than 0.05 µM in assay [2]; less than 0.05 µM in assay [3]; less than 0.05 µM in assay [4]; more than 0.5 µM in assay [5].

In the case of `C[C@H]1Oc2cc(cnc2N)-c2c(CC(F)F)noc2Cc2cn(C)nc2-c2ccc(F)cc21` [Compound 85], the Ki was less than 0.05 µM in assay [1]; less than 0.05 µM in assay [2]; less than 0.05 µM in assay [3]; less than 0.05 µM in assay [4]; more than 0.5 µM in assay [5].

As for `CCn1ncc2c1-c1cnc(N)c(c1)O[C@H](C)c1cc(F)ccc1-c1nn(C(F)F)cc1C2` [Compound 86], the Ki in assay [1] was less than 0.05 µM; in assay [2], less than 0.05 µM; in assay [3], less than 0.05 µM; in assay [4], 0.05 to 0.5 µM; in assay [5] it was more than 0.5 µM.

Regarding `CCn1ncc2c1-c1cnc(N)c(c1)O[C@H](C)c1cc(F)ccc1-c1nn(C)c(C)c1C2` [Compound 87], the Ki in assay [1], in assay [2], in assay [3], in assay [4] and in assay [5] was less than 0.05 µM each time.

As for `CCc1snc2c1-c1cnc(N)c(c1)O[C@H](C)c1cc(F)ccc1-c1nn(C)cc1C2` [Compound 88], the Ki in assay [1] was less than 0.05 µM; in assay [2] it was less than 0.05 µM; in assay [3], less than 0.05 µM; in assay [4], less than 0.05 µM; in assay [5] it was 0.05 to 0.5 µM.

Turning to `CCn1ncc2c1-c1cnc(N)c(c1)OCc1cc(F)ccc1-c1nc(C)sc1C2` [Compound 89], the Ki in assay [1] is less than 0.05 µM; in assay [2] it was less than 0.05 µM; in assay [3], less than 0.05 µM; in assay [4], less than 0.05 µM; in assay [5] it was more than 0.5 µM.

`CCc1noc2c1-c1cnc(N)c(c1)O[C@H](C)c1cc(F)cc(F)c1-c1nn(C)cc1C2` [Compound 90]: the Ki in assay [1] was less than 0.05 µM; in assay [2] it was less than 0.05 µM; in assay [3], less than 0.05 µM; in assay [4] it was less than 0.05 µM; in assay [5], 0.05 to 0.5 µM.

With `C[C@H]1Oc2cc(cnc2N)-c2c(cnn2CC2CC2)Cc2cc(C(F)(F)F)nn2-c2ccc(F)cc21` [Compound 91], the Ki in assay [1] was less than 0.05 µM; in assay [2], less than 0.05 µM; in assay [3], less than 0.05 µM; in assay [4] it was less than 0.05 µM; in assay [5], 0.05 to 0.5 µM.

`CCn1ncc2c1-c1cnc(N)c(c1)OCc1cc(F)ccc1-n1nc(C(F)(F)F)cc1C2` [Compound 92]: the Ki in assay [1] was less than 0.05 µM; in assay [2], less than 0.05 µM; in assay [3], less than 0.05 µM; in assay [4], less than 0.05 µM; in assay [5] it was more than 0.5 µM.
